Measurements as given in publication PMC9882606, “Rationally designed inhibitors of the Musashi protein-RNA interaction by hotspot mimicry” (Research Square, 2023).

Assays:
[1] = tested on: MSI2; test: Immunoblot of cellular MSI2 protein levels in PC9 cells; format: cell-based, human; settings: PC9, 20 μM compound for 1, 3, 6, 24, or 48 hours
From the text: To explore the effect of these MSI2 inhibitors in a cancer-relevant cellular context, we selected two MSI2-dependent cancer cell lines: non-small cell lung cancer cell line PC9 and leukemia cell line K562 [73, 98–101]. Upon treatment of PC9 cells with Ro, R12–8–44–3, or negative control R12-neg, we found at multiple time points that cellular MSI2 protein levels were unchanged (Figure 6a). To confirm target engagement, we therefore adapted the cellular thermal shift assay (CETSA). To determine experimental conditions, we first harvested cells and incubated at increasing temperatures; we then removed aggregated protein by centrifugation and used Western blotting to probe the amount of MSI2 remaining in the soluble fraction (Figure 6b, Figure S9). Having established 49 °C as the midpoint of the transition under these (non-equilibrium) conditions, we then treated cells with our candidate MSI2 inhibitor for 3 h, and heated to 49 °C.
Figure 6: Direct cellular engagement of MSI2 interaction by R12–44–3. (A) Immunoblot from PC9 cells treated with Ro (positive control), R12-neg (negative control), or R12–8–44–3. Cells were treated with 20 μM compound for 1, 3, 6, 24, or 48 hours. MSI2 protein abundance was then quantified and normalized to untreated sample. One representative image is shown; quantification is presented as the average ± S.E.M. from 3 independent replicates. (B) Thermal-induced aggregation of cellular MSI2 in the PC9 cell line. Cells were briefly incubated at temperatures between 40 °C to 67 °C, then centrifuged and the amount of MSI2 remaining in the soluble fraction was quantified by Western blotting. […] One representative image is shown; quantification is presented as the average ± S.E.M. from 3 independent replicates, normalized first to beta-actin and then to DMSO control. […] One representative image is shown; quantification is presented as the average ± S.E.M. from 3 independent replicates, normalized first to beta-actin and then to DMSO control. […]

[2] = target: T1, MSI1 RRM1 (Homo sapiens, UniProt O43347); test: Fluorescence polarization (FP) competition assay with fluorescein-labeled RNA; format: binding; settings: MSI1 RRM1
T1 sequence (O43347 20-110 limits assumed): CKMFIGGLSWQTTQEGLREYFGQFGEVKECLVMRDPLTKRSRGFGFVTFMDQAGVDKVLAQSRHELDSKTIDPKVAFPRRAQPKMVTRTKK
From the text: Figure 1: The hotspot mimicry approach. […] (A) The structure of the MSI1 / RNA complex. The RNA (sticks) wraps around the protein (spheres). Two adjacent bases, A106 and G107 (magenta), are buried in a shallow pocket on the protein surface. (B) An interaction map is generated from the RNA in the complex, by collecting deeply buried bases (magenta) and atoms involved in intermolecular hydrogen bonds (acceptors shown in yellow, donors in green). […] Positive values indicate diminished binding when a given base is replaced with an abasic site, showing that A106 and G107 contribute more than the other nearby bases to the binding affinity of this interaction. (E) The hotspot pharmacophore serves as a template for ligand-based screening, searching for compounds that would mimic the three-dimensional features of the pharmacophore. The screen led to the identification of compound R12, which mimics the geometry of the rings and provides three of the four desired hydrogen bonding groups. (F) R12 competes with fluorescein-labeled RNA for MSI1 binding, as observed through a fluorescence polarization assay. […] (G) Superposition of the hotspot pharmacophore back onto the protein structure illustrates the interactions that should be captured by an ideal ligand: stacking against three aromatic sidechains, and four intermolecular hydrogen bonds.
We applied our “hotspot mimicry” approach to the structure of Musashi-1 RRM1 bound to cognate RNA [54], and found a single hotspot pharmacophore derived from an adjacent pair of buried bases, Adenine106 and Guanine107 (Figure 1a). […] This pharmacophore captures both the aromatic stacking and the hydrogen bonding of the RNA hotspot through its inclusion of ring moieties and donor/acceptor positions, respectively (Figure 1c). To test whether these two particular bases indeed serve as a hotspot of the MSI1 RRM1 / RNA interaction, we used a fluorescence polarization (FP) competition assay (see Supporting Methods) to measure the binding affinity of RNA variants that maintained the backbone but lacked individual bases. […] In contrast, introduction of an abasic site at other nearby positions affected binding much less. Confirmation that A106 and G107 serve as hotspot bases of this interaction thus provided experimental evidence supporting the pharmacophore selection from our computational approach.

[3] = target: T1, MSI1 RRM1; test: HSQC chemical shift mapping; format: binding; settings: MSI1 RRM1 in presence vs absence of compound
From the text: To test the hypothesis that R12–8–44–3 engages MSI1 RRM1 though specific binding interactions (rather than non-specific aggregation), we used HSQC chemical shift mapping. We collected spectra for this construct in the presence and absence of R12–8–44–3 (Figure 3a), using previously-reported assignments from a very similar construct. […] While not all peaks were assigned in our reference spectrum, we gratifyingly find that of the assigned peaks, those with the largest chemical shift differences (Phe23, Lys93) comprise exactly the expected binding site for R12–8–44–3 (Figure 3b).
Figure 3: Structural characterization of R12–8–44–3 / MSI1. (A) HSQC spectrum of MSI1 RRM1 collected in the presence (red) or absence (black) of R12–8–44–3. Assigned peaks showing the strongest chemical shift difference are labeled (Phe23, Lys93). (B) Mapping the location of these residues to our model of R12–8–44–3/MSI1 confirms that these residues comprise the intended binding site.

## Cc1cc(C(=O)OCc2nc(N)c3c(C)c(C)sc3n2)c(N)cc1F [R12–8–44–3]
[1]
  cellular MSI2 protein levels: unchanged
[2]; FP assay
  improvement in potency over parent compound: 2 fold
[2]; FP competition
  IC50: 9.7 µM
[3]
  HSQC chemical shift changes on addition of compound: only a small number of peaks shift
